Changes are numbered by the printed parent chain.

What all share (assay type): functional, cell-based
Assay [1] concerns the target T1, Muscarinic acetylcholine receptor M1 (Homo sapiens) (UniProt P11229).
T1 sequence (whole entry): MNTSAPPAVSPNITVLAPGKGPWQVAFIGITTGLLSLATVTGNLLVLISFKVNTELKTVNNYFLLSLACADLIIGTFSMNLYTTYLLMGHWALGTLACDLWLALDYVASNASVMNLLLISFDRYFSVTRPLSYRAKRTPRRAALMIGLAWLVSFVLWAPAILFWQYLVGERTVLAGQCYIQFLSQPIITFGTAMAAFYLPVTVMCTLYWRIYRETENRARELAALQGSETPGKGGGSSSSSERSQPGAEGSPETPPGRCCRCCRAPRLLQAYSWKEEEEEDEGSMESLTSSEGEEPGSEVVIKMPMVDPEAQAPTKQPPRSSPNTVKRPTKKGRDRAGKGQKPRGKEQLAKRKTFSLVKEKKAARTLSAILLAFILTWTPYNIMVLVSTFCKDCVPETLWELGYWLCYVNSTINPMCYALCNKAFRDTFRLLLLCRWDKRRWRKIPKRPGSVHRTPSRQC
In words: Percent increase in Arachidonic acid (AA) release using CHO cells, transfected with human muscarinic m1 acetylcholine receptor (AChR).

For assay [2], the target named is T2, Muscarinic acetylcholine receptor M5 (Homo sapiens) (UniProt P08912).
T2 sequence (whole entry): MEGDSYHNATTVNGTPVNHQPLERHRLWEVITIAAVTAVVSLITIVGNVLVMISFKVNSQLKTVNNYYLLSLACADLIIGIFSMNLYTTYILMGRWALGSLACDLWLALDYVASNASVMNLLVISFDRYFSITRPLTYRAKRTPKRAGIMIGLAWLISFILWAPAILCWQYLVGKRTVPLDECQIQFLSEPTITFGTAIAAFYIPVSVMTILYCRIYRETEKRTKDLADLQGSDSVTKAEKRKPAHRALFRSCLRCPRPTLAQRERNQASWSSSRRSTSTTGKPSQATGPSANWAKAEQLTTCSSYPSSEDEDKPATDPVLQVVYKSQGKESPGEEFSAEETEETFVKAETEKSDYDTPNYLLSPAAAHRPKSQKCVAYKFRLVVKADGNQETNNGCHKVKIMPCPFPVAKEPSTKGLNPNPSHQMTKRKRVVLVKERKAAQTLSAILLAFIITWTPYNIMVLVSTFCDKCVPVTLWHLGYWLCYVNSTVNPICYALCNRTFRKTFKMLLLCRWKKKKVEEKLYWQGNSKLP
Kind of assay: Percent increase in intracellular calcium ions concentration ([Ca2+]i) using CHO cells, stably transfected with human muscarinic m5 acetylcholine receptor (AChR). On the technique in general: A change in cytosolic calcium serves as a functional read-out for many receptors and channels.

The target in assay [3] is T1, Muscarinic acetylcholine receptor M1 (Homo sapiens). In words: Percent increase in phosphoinositides (PI) hydrolysis using chinese hamster ovary (CHO) cells, stably transfected with human muscarinic m1 acetylcholine receptor (AChR).
The target of assay [4] is Muscarinic acetylcholine receptor M3 (Homo sapiens) (UniProt P20309). Kind of assay: Percent increase in forskolin-stimulated cAMP accumulation using CHO cells, stably transfected with human muscarinic m3 acetylcholine receptor (AChR). For orientation: Cyclic AMP is a second messenger, typically raised through Gs and lowered through Gi signalling.
Chain of Muscarinic acetylcholine receptor M3 (Homo sapiens) (P20309 whole entry, looked up): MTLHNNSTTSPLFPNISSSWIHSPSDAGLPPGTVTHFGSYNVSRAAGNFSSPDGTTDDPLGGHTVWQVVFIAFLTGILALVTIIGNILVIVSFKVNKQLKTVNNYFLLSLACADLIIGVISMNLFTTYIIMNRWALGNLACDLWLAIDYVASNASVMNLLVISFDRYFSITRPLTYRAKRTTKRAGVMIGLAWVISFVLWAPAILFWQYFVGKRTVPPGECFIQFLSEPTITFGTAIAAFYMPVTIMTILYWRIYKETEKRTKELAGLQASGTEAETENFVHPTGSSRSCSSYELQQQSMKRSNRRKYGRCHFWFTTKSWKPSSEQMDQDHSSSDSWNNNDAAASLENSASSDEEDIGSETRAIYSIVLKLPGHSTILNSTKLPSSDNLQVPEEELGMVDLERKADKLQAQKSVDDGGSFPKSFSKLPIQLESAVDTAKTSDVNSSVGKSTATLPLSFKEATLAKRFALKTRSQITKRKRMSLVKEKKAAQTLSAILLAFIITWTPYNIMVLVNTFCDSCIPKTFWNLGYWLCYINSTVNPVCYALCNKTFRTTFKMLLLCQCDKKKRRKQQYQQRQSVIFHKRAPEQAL
Assay [5] deals with T3, Muscarinic acetylcholine receptor M4 (Homo sapiens) (UniProt P08173).
T3 sequence (whole entry): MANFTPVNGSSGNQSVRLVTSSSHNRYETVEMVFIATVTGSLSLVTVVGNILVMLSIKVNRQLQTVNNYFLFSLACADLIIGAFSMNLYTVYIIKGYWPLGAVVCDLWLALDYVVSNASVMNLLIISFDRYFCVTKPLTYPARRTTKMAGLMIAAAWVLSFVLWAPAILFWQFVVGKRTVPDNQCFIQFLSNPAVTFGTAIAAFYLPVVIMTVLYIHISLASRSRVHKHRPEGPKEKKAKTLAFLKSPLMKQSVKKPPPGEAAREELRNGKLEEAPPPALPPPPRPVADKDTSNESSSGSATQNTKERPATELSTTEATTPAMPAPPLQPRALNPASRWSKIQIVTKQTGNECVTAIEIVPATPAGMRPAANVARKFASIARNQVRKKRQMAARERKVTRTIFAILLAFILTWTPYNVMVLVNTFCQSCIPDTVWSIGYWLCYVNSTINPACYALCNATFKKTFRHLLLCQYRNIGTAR
Kind of assay: Percent increase in intracellular calcium ion concentration ([Ca2+]i) using CHO cells, stably transfected with human muscarinic m4 acetylcholine receptor (AChR).

In assay [6] the target is T2, Muscarinic acetylcholine receptor M5 (Homo sapiens). In words: Percent increase in Arachidonic acid (AA) release using CHO cells, stably transfected with human muscarinic m5 acetylcholine receptor (AChR).
Assay [7] deals with Muscarinic acetylcholine receptor M3 (Homo sapiens) (UniProt P20309). In words: Percent increase in Arachidonic acid (AA) release using CHO cells, stably transfected with human muscarinic m3 acetylcholine receptor (AChR).
Assay [8] has the same target. Kind of assay: Percent increase in phosphoinositides (PI) hydrolysis using CHO cells, stably transfected with human muscarinic m3 acetylcholine receptor (AChR).
Assay [9] concerns the target T4, Muscarinic acetylcholine receptor M2 (Homo sapiens) (UniProt P08172).
T4 sequence (whole entry): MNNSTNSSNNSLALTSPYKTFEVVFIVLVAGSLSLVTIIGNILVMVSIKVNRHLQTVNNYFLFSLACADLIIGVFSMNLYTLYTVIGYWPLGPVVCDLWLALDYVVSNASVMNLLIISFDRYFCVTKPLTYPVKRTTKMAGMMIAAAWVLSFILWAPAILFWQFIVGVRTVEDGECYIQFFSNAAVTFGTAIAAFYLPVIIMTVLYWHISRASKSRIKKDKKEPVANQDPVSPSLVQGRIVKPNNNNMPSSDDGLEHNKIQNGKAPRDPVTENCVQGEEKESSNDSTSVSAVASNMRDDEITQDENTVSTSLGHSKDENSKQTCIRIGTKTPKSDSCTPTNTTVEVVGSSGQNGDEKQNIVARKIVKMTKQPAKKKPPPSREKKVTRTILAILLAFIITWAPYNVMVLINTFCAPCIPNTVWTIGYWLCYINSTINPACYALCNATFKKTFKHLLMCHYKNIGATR
In words: Percent increase in intracellular calcium ions concentration ([Ca2+]i) using CHO cells, stably transfected with human muscarinic m2 acetylcholine receptor (AChR).

In assay [10] the target is T2, Muscarinic acetylcholine receptor M5 (Homo sapiens). Kind of assay: Percent increase in phosphoinositides (PI) hydrolysis using CHO cells, stably transfected with human muscarinic m5 acetylcholine receptor (AChR).
In assay [11] the target is Muscarinic acetylcholine receptor M3 (Homo sapiens) (UniProt P20309). In words: Percent increase in intracellular calcium ion concentration ([Ca2+]i) using CHO cells, stably transfected with human muscarinic m3 acetylcholine receptor (AChR).
Assay [12] concerns the target T4, Muscarinic acetylcholine receptor M2 (Homo sapiens). Kind of assay: Percent increase in forskolin-stimulated cAMP accumulation using CHO cells, transfected with human muscarinic m2 acetylcholine receptor (AChR).
Assay [13] has as its target T1, Muscarinic acetylcholine receptor M1 (Homo sapiens). In words: Percent increase in forskolin-stimulated cAMP accumulation using CHO cells, stably transfected with human muscarinic m1 acetylcholine receptor (AChR).
The target is the same in assay [14]. In words: Percent increase in intracellular calcium ions concentration ([Ca2+]i) using CHO cells, stably transfected with human muscarinic m1 acetylcholine receptor (AChR).
Assay [15] addresses Muscarinic acetylcholine receptor M3 (Rattus norvegicus) (UniProt P08483). In words: Percent increase in Arachidonic acid (AA) release using CHO cells, stably transfected with rat muscarinic m3 acetylcholine receptor (AChR).
In assay [16] the target is T5, Muscarinic acetylcholine receptor M1 (Rattus norvegicus) (UniProt P08482).
T5 sequence (whole entry): T1 sequence (whole entry) with A5V, T254S, P309S, R320K, A337G, I413V
In words: Percent increase in Arachidonic acid (AA) release using CHO cells, transfected with rat muscarinic m1 acetylcholine receptor (AChR).

Chain of Muscarinic acetylcholine receptor M3 (Rattus norvegicus) (P08483 whole entry, looked up): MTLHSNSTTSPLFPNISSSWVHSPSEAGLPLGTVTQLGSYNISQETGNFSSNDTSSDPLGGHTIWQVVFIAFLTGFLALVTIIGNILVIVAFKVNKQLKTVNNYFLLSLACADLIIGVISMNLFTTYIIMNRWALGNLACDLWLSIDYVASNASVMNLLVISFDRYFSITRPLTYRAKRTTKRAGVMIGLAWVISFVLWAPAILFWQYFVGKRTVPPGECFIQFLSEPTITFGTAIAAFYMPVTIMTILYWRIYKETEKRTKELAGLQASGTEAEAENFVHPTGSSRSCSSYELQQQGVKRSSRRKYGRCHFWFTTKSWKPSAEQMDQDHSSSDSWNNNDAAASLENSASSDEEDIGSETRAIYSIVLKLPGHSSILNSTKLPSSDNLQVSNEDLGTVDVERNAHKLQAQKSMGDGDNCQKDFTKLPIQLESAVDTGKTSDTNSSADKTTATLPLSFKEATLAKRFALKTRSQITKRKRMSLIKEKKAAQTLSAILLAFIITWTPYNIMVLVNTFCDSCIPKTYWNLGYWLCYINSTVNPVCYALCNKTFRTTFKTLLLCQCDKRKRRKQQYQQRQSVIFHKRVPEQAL

On to `C[C@@H]1OC2(CS1)CN1CCC2CC1` (some centres undefined), for which the Increase in assay [1] is 68%; in [2] it was 32%; in assay [3], 43%; in assay [4], 0.8%; in assay [5], 3%; in [6], 4%. The Increase amounted to 11% in assay [7]; 10% in assay [8]; 17% in assay [9]; 4% in [10]; 86% in [11]; 60% in assay [12]. The Increase was found to be 1% in [13] and 79% in assay [14].

As for `CC1=NCC2(CCN(C)CC2)O1`, the Increase in assay [2] was found to be 78%; in assay [15], 27%; in assay [3], 85%; in assay [4], 10%; in [5] it was 10%; in [8] it was 76%. Also, the Increase in [9] is 12%; in assay [16] it was 90%; in assay [10], 28%; in assay [11] it was 130%; in assay [12], 74%; in assay [13] it was 6%. In addition, the Increase in assay [14] came to 60%.

As to `CC1=NC2(CCN(C)CC2)CO1`, the Increase in [1] came out at 3%; in assay [2] it was 80%; in assay [15], 36%; in [3], 102%; in assay [4], 4%; in assay [5], 10%. The Increase is 84% in assay [8]; 9% in assay [9]; 61% in [16]; 79% in assay [10]; 132% in assay [11]; 70% in assay [12]. The Increase in assay [14] worked out at 85%.

Regarding `C[N+](C)(C)CC#CCOC(=O)Nc1cccc(Cl)c1`, the Increase was determined as 90% in assay [1]; 89% in assay [3]; 7% in assay [4]; 34% in assay [6]; 13% in assay [7]; 7% in assay [8]. The Increase in assay [10] came to 24%; in assay [12] it was 9.5%; in assay [13], 7%.

For the origin of these results see ChEMBL document CHEMBL1126234, “Rigid analogs of acetylcholine can be m1-selective agonists: implications for a rational treatment strategy in Alzheimer's disease” (Bioorg Med Chem Lett, 1992).
